Test results taken from ChEMBL document CHEMBL3124802, “Scrutinizing the scaffolds of marine biosynthetics from different source organisms: Gram-negative cultured bacterial products enter center stage” (J Nat Prod, 2014).
Converted amounts (≈) assume the structure as drawn. Where a SMILES comes first, the peptide text is derived from it. Bridges are numbered along the chain shown (N, C = ends). The star is where a group is joined. X1 = O=C(/C=C/C=C/C=C/C=C/c1ccc(O)c(Br)c1)*

Assays:
[1] = Antioxidant activity assessed as singlet oxygen quenching activity; assay type: functional
[2] = Cytotoxicity against sea urchin eggs; design: species or system Egg; settings: strongylocentrotus intermedius, read-out: MIC
[3] = tested on: Candida albicans; assay: Antimicrobial activity against Candida albicans; assay type: functional

CC(/C=C/C=C(C)/C=C/C=C(\C)C(=O)O)=C\C=C\C=C(C)\C=C\C=C(C)\C=C\C=C(/C)C(=O)O[C@@H]1OC[C@@H](O)[C@H](O)[C@H]1OC(=O)CCCCCCCCCCC(C)C
IC50 [1]: 5.1 µM

CC[C@@H](C)[C@@H]1NC(=O)[C@H](CC(N)=O)NC(=O)[C@H](CC(N)=O)NC(=O)[C@H](C(C)C)NC(=O)[C@@H](NC(=O)/C=C/C=C/C=C/C=C/c2ccc(O)c(Br)c2)[C@@H](C)OC1=O
MCC [2]: 40 µg/mL

CC[C@@H](C)[C@@H]1NC(=O)[C@H](CC(N)=O)NC(=O)[C@H](CC(N)=O)NC(=O)[C@H](C(C)C)NC(=O)[C@@H](NC(=O)CCCCCCCCc2ccc(O)cc2)[C@@H](C)OC1=O
MCC [2]: 40 µg/mL

CC[C@@H](C)[C@@H]1NC(=O)[C@H](CC(N)=O)NC(=O)[C@H](CC(N)=O)NC(=O)[C@H](C(C)C)NC(=O)[C@@H](NC(=O)CCCCCCCCc2ccc(O)c(Br)c2)[C@@H](C)OC1=O
MCC [2]: 40 µg/mL

CC[C@@H](C)[C@@H]1NC(=O)[C@H](CC(N)=O)NC(=O)[C@H](CC(N)=O)NC(=O)[C@H](C(C)C)NC(=O)[C@@H](NC(=O)/C=C/CCCCCCc2ccc(O)c(Br)c2)[C@@H](C)OC1=O
MCC [2]: 40 µg/mL

CC(C)C[C@@H]1NC(=O)[C@H](CC(N)=O)NC(=O)[C@H](CC(N)=O)NC(=O)[C@H](C(C)C)NC(=O)[C@@H](NC(=O)/C=C/C=C/C=C/C=C/c2ccc(O)c(Br)c2)[C@@H](C)OC1=O (X1-TVNNL; ester 1-C)
MCC [2]: 40 µg/mL

C/C1=C\[C@H](C)C[C@H](C)OC(=O)C[C@H](c2ccc(O)cc2)NC(=O)[C@@H](Cc2c(Br)[nH]c3ccccc23)N(C)C(=O)[C@H](C)NC(=O)[C@@H](C)C1 [JASPAMIDE]
MIC [3]: 25 µg/mL (≈ 35.2 µM)
